# Earlier results as cited in US7102020B2, “Total synthesis of daurichromenic acid” (priority 2002, dated 2006).
# Tested on: HIV
# Settings: acutely infected H9 cells
smiles,measurement,value
CC(C)=CCC/C(C)=C/CC[C@@]1(C)C=Cc2c(cc(C)c(C(=O)O)c2O)O1 [Daurichromenic acid],anti-HIV activity EC50,5.67 ng/mL
